# Measured values taken from patent publication EP4752149A1, “OXYGEN-CONTAINING FUSED TRICYCLIC DERIVATIVE, AND PREPARATION METHOD THEREFOR AND USE THEREOF” (Tuojie Biotech (Shanghai) Co., Ltd., priority 2023, dated 2025).
# pIC50: −log10 of the molar value.
# Test system: Ovarian cancer cells (OVCAR3)
# Assay: Inhibitory activity against ovarian cancer cells (OVCAR3), CTG cell viability
# Assay type: cell-based
# Details: Homo sapiens, OVCAR-3, 168 h, 7 days with compound
# Procedure: Ovarian cancer cells (OVCAR3) were cultured using an RPMI 1640 culture medium containing 10% FBS in a cell incubator (37 °C, 5% CO2). On day one, the cells were plated in a 384-well plate at a cell concentration of 800 cells/well and cultured overnight in an incubator. On day two, the cells were treated with compounds. The highest compound concentration was 10 µM and was diluted 3-fold to obtain 9 concentrations, and the final concentration of DMSO was 0.1%. After the cells were cultured in the incubator for another 7 days, the cell viability was tested using a CTG Cell Viability Detection Reagent (MCE); the testing method was consistent with the method provided by the kit. Data were processed using GraphPad Prism 8, and IC50 was calculated. [formula] X: the logarithm of the compound concentration; Y: inhibition%. Table 2. The IC50 (nM) of compounds of the present disclosure against OVCAR3
row,pIC50,Structure (SMILES)
1,7.32,"C[C@H]1COc2c(-c3nc(Nc4ccc(N5CCOCC5=O)cc4F)ncc3F)cc(F)c3ncn1c23 [Example 2, (S)-4-(3-Fluoro-4-((5-fluoro-4-(8-fluoro-3-methyl-3,4-dihydro-5-oxa-1,2a-diazaacenaphthylen-6-yl)pyrimidin-2-yl)amino)phenyl)morpholin-3-one]"
2,7.05,"CNS(=O)(=O)c1ccc(Nc2ncc(Cl)c(-c3cc(F)c4nc(C(C)(C)O)n5c4c3OC[C@@H]5C)n2)cc1 [Example 5, (S)-4-((5-Chloro-4-(8-fluoro-2-(2-hydroxypropan-2-yl)-3-methyl-3,4-dihydro-5-oxa-1,2a-diazaacenaphthylen-6-yl)pyrimidin-2-yl)amino)-N-methylbenzenesulfonamide]"
3,7.10,"Cc1nc2c(F)cc(-c3nc(Nc4ccc(N5CCOCC5=O)cc4F)ncc3F)c3c2n1[C@@H](C)CO3 [Example 6, (S)-4-(3-Fluoro-4-((5-fluoro-4-(8-fluoro-2,3-dimethyl-3,4-dihydro-5-oxa-1,2a-diazaacenaphthylen-6-yl)pyrimidin-2-yl)amino)phenyl)morpholin-3-one]"
4,6.12,"CNS(=N)(=O)c1ccc(Nc2ncc(Cl)c(-c3cc(F)c4nc(C(C)(C)O)n5c4c3OC[C@@H]5C)n2)c(F)c1 (stereo partly drawn) [Example 9, 4-((5-Chloro-4-((S)-8-fluoro-2-(2-hydroxypropan-2-yl)-3-methyl-3,4-dihydro-5-oxa-1,2a-diazaacenaphthylen-6-yl)pyrimidin-2-yl)amino)-3-fluoro-N-methylbenzenesulfonimide]"
5,6.64,"C[C@H]1COc2c(-c3nc(Nc4ccc(N5CCOCC5=O)cc4)ncc3Cl)cc(F)c3nc(C(C)(C)O)n1c23 [Example 10, (S)-4-(4-((5-Chloro-4-(8-fluoro-2-(2-hydroxypropan-2-yl)-3-methyl-3,4-dihydro-5-oxa-1,2a-diazaacenaphthylen-6-yl)pyrimidin-2-yl)amino)phenyl)morpholin-3-one]"
6,6.17,"CNC(=O)c1ccc(Nc2ncc(Cl)c(-c3cc(F)c4nc(C(C)(C)O)n5c4c3OC[C@@H]5C)n2)cc1 [Example 11, (S)-4-((5-Chloro-4-(8-fluoro-2-(2-hydroxypropan-2-yl)-3-methyl-3,4-dihydro-5-oxa-1,2a-diazaacenaphthylen-6-yl)pyrimidin-2-yl)amino)-N-methylbenzamide]"
7,6.19,"C[C@H]1COc2c(-c3nc(Nc4ccc(N5CCC(N(C)C)CC5=O)cc4F)ncc3Cl)cc(F)c3nc(C(C)(C)O)n1c23 (stereo partly drawn) [Example 12, 1-(4-((5-Chloro-4-((S)-8-fluoro-2-(2-hydroxypropan-2-yl)-3-methyl-3,4-dihydro-5-oxa-1,2a-diazaacenaphthylen-6-yl)pyrimidin-2-yl)amino)-3-fluorophenyl)-4-(dimethylamino)piperidin-2-one]"
8,6.05,"C[C@H]1COc2c(-c3nc(Nc4ccc(N5CCOCC5=O)cc4F)ncc3C#N)cc(F)c3nc(C(C)(C)O)n1c23 [Example 13, (S)-4-(8-Fluoro-2-(2-hydroxypropan-2-yl)-3-methyl-3,4-dihydro-5-oxa-1,2a-diazaacenaphthylen-6-yl)-2-((2-fluoro-4-(3-oxomorpholino)phenyl)amino)pyrimidine-5-carbonitrile]"
9,6.20,"C[C@H]1COc2c(-c3nc(Nc4ccc(S(C)(=N)=O)cc4F)ncc3F)cc(F)c3nc(C(C)(C)O)n1c23 (stereo partly drawn) [Example 15, (3-Fluoro-4-((5-fluoro-4-((S)-8-fluoro-2-(2-hydroxypropan-2-yl)-3-methyl-3,4-dihydro-5-oxa-1,2a-diazaacenaphthylen-6-yl)pyrimidin-2-yl)amino)phenyl)(methyl)sulfonimide]"
10,6.65,"CNS(=O)(=O)c1ccc(Nc2ncc(F)c(-c3cc(F)c4nc(C(C)(C)O)n5c4c3OC[C@@H]5C)n2)c(F)c1 [Example 16, (S)-3-Fluoro-4-((5-fluoro-4-(8-fluoro-2-(2-hydroxypropan-2-yl)-3-methyl-3,4-dihydro-5-oxa-1,2a-diazaacenaphthylen-6-yl)pyrimidin-2-yl)amino)-N-methylbenzenesulfonamide]"
